Experimental findings from patent US11242337B2, “Compounds useful for treating gastrointestinal tract disorders” (Ardelyx, Inc., priority 2017, dated 2022) are described below.

The target in experiment [1] is T1, NHE3 (Homo sapiens, UniProt P48764).
T1 construct: expressed in transfected cells
T1 sequence (P48764 26-834): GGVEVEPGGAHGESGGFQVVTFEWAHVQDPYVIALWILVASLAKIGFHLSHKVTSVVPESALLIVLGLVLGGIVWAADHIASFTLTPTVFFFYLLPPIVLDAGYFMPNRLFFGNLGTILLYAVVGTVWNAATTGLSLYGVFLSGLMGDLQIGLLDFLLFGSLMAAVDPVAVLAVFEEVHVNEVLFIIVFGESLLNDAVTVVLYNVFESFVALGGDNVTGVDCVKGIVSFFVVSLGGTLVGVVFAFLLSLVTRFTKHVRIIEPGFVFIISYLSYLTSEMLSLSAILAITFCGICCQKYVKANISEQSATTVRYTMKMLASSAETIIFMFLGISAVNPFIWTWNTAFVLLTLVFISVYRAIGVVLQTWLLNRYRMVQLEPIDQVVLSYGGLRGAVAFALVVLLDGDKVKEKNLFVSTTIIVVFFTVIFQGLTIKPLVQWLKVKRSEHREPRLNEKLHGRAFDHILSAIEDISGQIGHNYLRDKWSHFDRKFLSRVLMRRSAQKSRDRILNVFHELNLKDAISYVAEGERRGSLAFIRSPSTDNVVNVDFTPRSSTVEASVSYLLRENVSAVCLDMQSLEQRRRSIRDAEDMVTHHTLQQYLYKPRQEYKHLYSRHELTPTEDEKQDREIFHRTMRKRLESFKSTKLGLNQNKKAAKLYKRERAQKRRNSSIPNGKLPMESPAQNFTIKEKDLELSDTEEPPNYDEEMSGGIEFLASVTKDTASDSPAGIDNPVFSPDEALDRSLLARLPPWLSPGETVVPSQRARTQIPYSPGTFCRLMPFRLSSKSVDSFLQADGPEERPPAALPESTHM
T1 sequence (Q99653 2-195 partner limits assumed): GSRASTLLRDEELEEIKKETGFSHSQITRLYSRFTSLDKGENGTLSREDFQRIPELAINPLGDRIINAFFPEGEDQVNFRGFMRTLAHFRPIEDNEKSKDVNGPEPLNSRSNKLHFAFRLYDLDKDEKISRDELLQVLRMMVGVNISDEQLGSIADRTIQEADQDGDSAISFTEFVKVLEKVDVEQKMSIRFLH
Put plainly: Cell-based assay of NHE-3 activity (pre-incubation inhibition), human. Particulars: human Preincubation. In short, it runs like this:
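PS120 fibroblasts stably expressing human NHE3 and NHERF2, loaded 30 min at 37 °C with 5 μM BCECF-AM in NH4Cl buffer, then acidified 10 min at room temperature in Na+-free buffer with 0–30 μM compound. Initial rate of BCECF fluorescence ratio change (FLIPR) per minute taken as Na+/H+ activity.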

The subject of experiment [2] is human duodenum monolayer culture. Briefly: Sustained inhibition of apical acid secretion in human organoid monolayer cell cultures (duodenum). It counts as cell-based. Particulars: Homo sapiens. As to the method: Basal media (BM) consisted of advanced DMEM/F12 containing 10 mM HEPES Invitrogen, 15630-080), 1:100 Glutamax (Invitrogen, 35050-061), and 1:100 penicillin/streptomycin (Invitrogen, 15140-122). Supplemented basal media (SBM) contained 1:100 N2 (Invitrogen, 17502-048), 1:50 B27 (Invitrogen, 12587-010), 1 mM N-acetylcysteine (Sigma, A9165), and 10 nM [Leu15]-gastrin I (Sigma, G9145). Growth factors used included 50 ng per mL mouse EGF (Peprotech, 315-09), 100 ng per mL mouse noggin (Peprotech, 250-38), 500 ng per mL human R-spondin 1 (R&D, 4645-RS), 100 ng per mL mouse Wnt-3a (R&D, 1324-WN), 20 μM. Y-27632 (Tocris, 1254), 10 mM nicotinamide (Sigma, N0636), 500 nM A83-01 (Tocris, 2939), 10 μM SB202190 (Tocris, 1264). Transwells were 0.4 μm pore polyester membrane 24-well Transwell inserts (Corning). Cultures were incubated at 37° C. in 5% CO2.
Each human ileum monolayer culture well was washed twice with fresh SBM on the apical side on day 6 before compound dosing. All compound stocks were 10 mM dissolved in DMSO. Each compound stock was individually mixed with fresh SBM to reach final compound concentration 1 μM and dosed only on the apical side of the monolayer (total volume 200 μl). DMSO at the equivalent concentration was used as the vehicle control. Duplicate wells were dosed for each compound. On day 8, apical media pH was measured by pH electrode, to determine the ability of example compounds to produce sustained inhibition of NHE3 activity in a human monolayer culture system by preventing proton secretion into the apical compartment.
Human duodenum organoids were cultured in WENRNAS (Wnt, EGF, noggin, R-spondin1, Nicotinamide, A83-01, SB202190) and typically grown for 7-12 days before being used to plate monolayer cultures. On day 0, organoid cultures embedded in Matrigel were treated with TrypLE Express to break organoids into small pieces and/or single cells. The cells were resuspended to 0.5×10^6 cells/mL in SBM containing WENRAY (Wnt, EGF, noggin, R-spondin1, A83-01, Y-27632). Following this step, 200 μL of cell suspension was plated into the apical side of a 24-well Transwell (100,000 cells/well) and 600 μL of SBM with WENRAY was added to the basolateral side. Duodenum cells were differentiated with ENA (EGF, noggin, A83-01) on day 3. The color of apical compartment turns from pink or orange to yellow due to the increase in NHE3 expression after differentiation.

Bounds are passed on as bounds.

As a reminder, the inhibition is the relative decrease from the control value, in per cent. Usually IC50 stands for the point on the concentration scale where inhibition reaches its midpoint. A high value points to lower potency.

With `N#Cc1cc(Cl)cc2c1C[C@H](N1CCNCC1)[C@H]2Oc1ccc(S(=O)(=O)NCCOCCOCCNC(=O)NCCCCNC(=O)NCCOCCOCCNS(=O)(=O)c2ccc(O[C@H]3c4cc(Cl)cc(C#N)c4C[C@@H]3N3CCNCC3)c(F)c2)cc1F` [Example 43, 3-[2-(2-[2-[(4-[[(1S,2S)-6-Chloro-4-cyano-2-(piperazin-1-yl)-2,3-dihydro-1H-inden-1-yl]oxy]-3-fluorobenzene)sulfonamido]ethoxy]ethoxy)ethyl]-1-[4-([[2-(2-[2-[(4-[[(1S,2S)-6-chloro-4-cyano-2-(piperazin-1-yl)-2,3-dihydro-1H-inden-1-yl]oxy]-3-fluorobenzene)sulfonamido]ethoxy]ethoxy)ethyl]carbamoyl]amino)butyl]urea; bis(trifluoroacetic acid)], in experiment [1], the “% inhibition” value is listed as “C (>70%)”. The pIC50 result in experiment [1] (0-30 μM test compound) is “C (NHE3 pIC50 > 7)”. In experiment [2], this compound returned an inhibition at 1 µM above 70%.
As for `Cc1cc(S(=O)(=O)N2CC[C@@H](COCCOCCNC(=O)NCCCCNC(=O)NCCOCCOC[C@@H]3CCN(S(=O)(=O)c4ccc(O[C@H]5c6cc(Cl)cc(Cl)c6C[C@@H]5N(C)C)c(C)c4)C3)C2)ccc1O[C@H]1c2cc(Cl)cc(Cl)c2C[C@@H]1N(C)C` [Example 45, 3-[2-(2-[[(3R)-1-[(4-[[(1S,2S)-4,6-Dichloro-2-(dimethylamino)-2,3-dihydro-1H-inden-1-yl]oxy]-3-methylbenzene)sulfonyl]pyrrolidin-3-yl]methoxy]ethoxy)ethyl]-1-[4-([[2-(2[[(3R)-1-[(4-[[(1S,2S)-4,6-dichloro-2-(dimethylamino)-2,3-dihydro-1H-inden-1-yl]oxy]-3-methylbenzene)sulfonyl]pyrrolidin-3-yl]methoxy]ethoxy)ethyl]carbamoyl]amino)butyl]urea; bis(trifluoroacetic acid)], the “% inhibition” value in experiment [1] was “C (>70%)”. Further, the pIC50 entry in experiment [1] (0-30 μM test compound) is reported as “C (NHE3 pIC50 > 7)”. Further, the inhibition at 1 µM in experiment [2] is above 70%.
For `Cc1cc(S(=O)(=O)N2CC[C@@H](COc3ccnc(CNC(=O)NCCCCNC(=O)NCc4cc(OC[C@@H]5CCN(S(=O)(=O)c6ccc(O[C@H]7c8cc(Cl)cc(Cl)c8C[C@@H]7N(C)C)c(C)c6)C5)ccn4)c3)C2)ccc1O[C@H]1c2cc(Cl)cc(Cl)c2C[C@@H]1N(C)C` [Example 49, 3-[(4-[[(3R)-1-[(4-[[(1S,2S)-4,6-Dichloro-2-(dimethylamino)-2,3-dihydro-1H-inden-1-yl]oxy]-3-methylbenzene)sulfonyl]pyrrolidin-3-yl]methoxy]pyridin-2-yl)methyl]-1-[4-([[(4-[[(3R)-1-[(4-[[(1S,2S)-4,6-dichloro-2-(dimethylamino)-2,3-dihydro-1H-inden-1-yl]oxy]-3-methylbenzene)sulfonyl]pyrrolidin-3-yl]methoxy]pyridin-2-yl)methyl]carbamoyl]amino)butyl]urea], the “% inhibition” value in experiment [1] was “C (>70%)”. Besides, in experiment [1] (0-30 μM test compound), the pIC50 result was “B (NHE3 pIC50 6-7)”. For the same compound, the inhibition at 1 µM in experiment [2] was above 70%.
On the same counts, the results for `Cc1cc(S(=O)(=O)N[C@H]2CCN(CCOCCNC(=O)NCCCCNC(=O)NCCOCCN3CC[C@H](NS(=O)(=O)c4ccc(O[C@H]5c6cc(Cl)cc(Cl)c6C[C@@H]5N(C)C)c(C)c4)C3)C2)ccc1O[C@H]1c2cc(Cl)cc(Cl)c2C[C@@H]1N(C)C` [Example 52, 3-(2-[2-[(3S)-3-[(4-[[(1S,2S)-4,6-Dichloro-2-(dimethylamino)-2,3-dihydro-1H-inden-1-yl]oxy]-3-methylbenzene)sulfonamido]pyrrolidin-1-yl]ethoxy]ethyl)-1-(4-[[(2-[2-[(3S)-3-[(4-[[(1S,2S)-4,6-dichloro-2-(dimethylamino)-2,3-dihydro-1H-inden-1-yl]oxy]-3-methylbenzene)sulfonamido]pyrrolidin-1-yl]ethoxy]ethyl)carbamoyl]amino]butyl)urea] are “C (>70%)”, “C (NHE3 pIC50 > 7)” and above 70%.
With `Cc1cc(S(=O)(=O)N[C@@H]2CCN(CCOCCNC(=O)NCCCCNC(=O)NCCOCCN3CC[C@@H](NS(=O)(=O)c4ccc(O[C@H]5c6cc(Cl)cc(C#N)c6C[C@@H]5N(C)C)c(C)c4)C3)C2)ccc1O[C@H]1c2cc(Cl)cc(C#N)c2C[C@@H]1N(C)C` [Example 55, 3-(2-[2-[(3R)-3-[(4-[[(1S,2S)-6-Chloro-4-cyano-2-(dimethylamino)-2,3-dihydro-1H-inden-1-yl]oxy]-3-methylbenzene)sulfonamido]pyrrolidin-1-yl]ethoxy]ethyl)-1-(4-[[(2-[2-[(3R)-3-[(4-[[(1S,2S)-6-chloro-4-cyano-2-(dimethylamino)-2,3-dihydro-1H-inden-1-yl]oxy]-3-methylbenzene)sulfonamido]pyrrolidin-1-yl]ethoxy]ethyl)carbamoyl]amino]butyl)urea], the “% inhibition” value in experiment [1] is on record as “C (>70%)”. In addition, in experiment [2], the inhibition at 1 µM lay in the range of 50 to 70%.
Take `Cc1cc(S(=O)(=O)N[C@H]2CCN(CCOCCNC(=O)NCCCCNC(=O)NCCOCCN3CC[C@H](NS(=O)(=O)c4ccc(O[C@H]5c6cc(Cl)cc(Cl)c6C[C@@H]5N(C)C)c(C)c4)C3=O)C2=O)ccc1O[C@H]1c2cc(Cl)cc(Cl)c2C[C@@H]1N(C)C` [Example 91, 1-(2-[2-[(3S)-3-[(4-[[(1S,2S)-4,6-Dichloro-2-(dimethylamino)-2,3-dihydro-1H-inden-1-yl]oxy]-3-methylbenzene)sulfonamido]-2-oxopyrrolidin-1-yl]ethoxy]ethyl)-3-(4-[[(2-[2-[(3S)-3-[(4-[[(1S,2S)-4,6-dichloro-2-(dimethylamino)-2,3-dihydro-1H-inden-1-yl]oxy]-3-methylbenzene)sulfonamido]-2-oxopyrrolidin-1-yl]ethoxy]ethyl)carbamoyl]amino]butyl)urea]: in experiment [1], the “% inhibition” value is reported as “C (>70%)”. In experiment [1] (0-30 μM test compound), the pIC50 result was “C (NHE3 pIC50 > 7)”. In experiment [2], the inhibition at 1 µM is above 70%.
`O=C(NCCCCNC(=O)NCCOCCN1CC[C@@H](NS(=O)(=O)c2ccc(O[C@H]3c4cc(Cl)cc(Cl)c4C[C@@H]3N3CCNCC3)c(F)c2)C1)NCCOCCN1CC[C@@H](NS(=O)(=O)c2ccc(O[C@H]3c4cc(Cl)cc(Cl)c4C[C@@H]3N3CCNCC3)c(F)c2)C1` [Example 105, 4-([(1S,2S)-4,6-Dichloro-2-(piperazin-1-yl)-2,3-dihydro-1H-inden-1-yl]oxy)-N—[(R)-1-(20-[(R)-3-([4-([(1S2S)-4,6-dichloro-2-(piperazin-1-yl)-2,3-dihydro-1H-inden-1-yl]oxy)-3-fluorophenyl]sulfonamido)pyrrolidin-1-yl]-7,14-dioxo-3,18-dioxa-6,8,13,15-tetraazaicosyl)pyrrolidin-3-yl]-3-fluorobenzenesulfonamide; tetra(trifluoroacetate)]: the “% inhibition” value in experiment [1] is given as “C (>70%)”. In experiment [1] (0-30 μM test compound), the IC50 was below 0.1 µM. In addition, the inhibition at 1 µM in experiment [2] is above 70%.
